Results from patent publication US11020395B2, “Cycloalkyl substituted triazole compounds as agonists of the APJ receptor” (AMGEN INC., priority 2016, dated 2021).

Biological target: human APJ receptor (Homo sapiens (Human), UniProt P35414)
Test: [35S]GTPγS binding assay on membranes from CHO cells stably expressing human APJ receptor
Assay type: biochemical
Conditions: [35S]GTPγS SPA, read-out: Activity hAPJ SPA EC50 IP
Outline: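 Agonist-stimulated [35S]GTPγS binding measured on membranes of a stable human APJ CHO line, 90 min at room temperature, with GDP, MgCl2 and NaCl levels optimized beforehand. Means of independent runs fitted by non-linear regression to give EC50.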

human APJ receptor, sequence (P35414 whole entry): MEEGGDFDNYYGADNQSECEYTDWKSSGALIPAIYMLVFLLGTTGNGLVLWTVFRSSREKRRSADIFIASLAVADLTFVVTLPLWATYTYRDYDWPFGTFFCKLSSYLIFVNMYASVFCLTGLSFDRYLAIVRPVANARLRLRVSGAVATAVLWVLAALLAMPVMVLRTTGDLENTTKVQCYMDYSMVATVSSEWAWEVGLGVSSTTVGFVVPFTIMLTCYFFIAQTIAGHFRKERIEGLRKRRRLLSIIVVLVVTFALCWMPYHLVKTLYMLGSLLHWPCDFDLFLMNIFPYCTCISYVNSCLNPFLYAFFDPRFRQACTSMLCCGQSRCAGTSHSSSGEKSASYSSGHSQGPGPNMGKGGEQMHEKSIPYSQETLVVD

Row | Molecule | EC50 [nM]
1 | COc1ncnc(OC)c1-n1c(NS(=O)(=O)[C@@H](C)[C@H](OC)c2ncc(Cl)cn2)nnc1[C@H]1CC[C@@H]1C (single isomer, unassigned) [Example 187.0, (1R,2S)-1-(5-chloropyrimidin-2-yl)-N-(4-(4,6-dimethoxypyrimidin-5-yl)-5-((1S,2S)-2-methylcyclobutyl)-4H-1,2,4-triazol-3-yl)-1-methoxypropane-2-sulfonamide or (1R,2S)-1-(5-chloropyrimidin-2-yl)-N-(4-(4,6-dimethoxypyrimidin-5-yl)-5-((1R,2R)-2-methylcyclobutyl)-4H-1,2,4-triazol-3-yl)-1-methoxypropane-2-sulfonamide] | 8.8
2 | COc1ncnc(OC)c1-n1c(NS(=O)(=O)[C@@H](C)[C@H](OC)c2ncc(C)cn2)nnc1C1CC2(CC2)C1 [Example 201.0] | 11
3 | COc1cccc(OC)c1-n1c(NS(=O)(=O)[C@@H](C)[C@H](OC)c2ncc(Cl)cn2)nnc1[C@H]1C[C@H](Cl)C1 (single isomer, unassigned) [Example 154.0, (1R,2S)-1-(5-chloropyrimidin-2-yl)-N-(4-(2,6-dimethoxyphenyl)-5-((1r,3S)-3-chlorocyclobutyl)-4H-1,2,4-triazol-3-yl)-1-methoxypropane-2-sulfonamide or (1R,2S)-1-(5-chloropyrimidin-2-yl)-N-(4-(2,6-dimethoxyphenyl)-5-((1s,3R)-3-chlorocyclobutyl)-4H-1,2,4-triazol-3-yl)-1-methoxypropane-2-sulfonamide] | 0.18
4 | COc1cccc(OC)c1-n1c(NS(=O)(=O)[C@@H](C)[C@@H](OC(C)C)c2ncc(C)cn2)nnc1[C@@H]1CCC(F)(F)C1 (mixture of isomers) [Example 232.0, (1S,2S)-N-(5-((1R)-3,3-difluorocyclopentyl)-4-(2,6-dimethoxyphenyl)-4H-1,2,4-triazol-3-yl)-1-(5-methyl-2-pyrimidinyl)-1-(2-propanyloxy)-2-propanesulfonamide and (1S,2S)-N-(5-((1S)-3,3-difluorocyclopentyl)-4-(2,6-dimethoxyphenyl)-4H-1,2,4-triazol-3-yl)-1-(5-methyl-2-pyrimidinyl)-1-(2-propanyloxy)-2-propanesulfonamide] | 42
5 | COc1ncnc(OC)c1-n1c(NS(=O)(=O)[C@@H](C)[C@H](OC)c2ncc(Cl)cn2)nnc1C1CCCCC1 [Example 6.0, (1R,2S)-1-(5-chloro-2-pyrimidinyl)-N-(5-cyclohexyl-4-(4,6-dimethoxy-5-pyrimidinyl)-4H-1,2,4-triazol-3-yl)-1-methoxy-2-propanesulfonamide] | 7.5
6 | COc1cccc(OC)c1-n1c(NS(=O)(=O)[C@@H](C)[C@H](C)c2ncc(C)cn2)nnc1C1CCCC1 [Example 17.0, (2S,3R)-N-(5-cyclopentyl-4-(2,6-dimethoxyphenyl)-4H-1,2,4-triazol-3-yl)-3-(5-methylpyrimidin-2-yl)butane-2-sulfonamide] | 1.1
7 | COc1ncnc(OC)c1-n1c(NS(=O)(=O)[C@@H](C)[C@H](OC)c2ncc(Cl)cn2)nnc1[C@H]1CC1(F)F (single isomer, unassigned) [Example 101.0, (1R,2S)-1-(5-chloropyrimidin-2-yl)-N-(5-((R)-2,2-difluorocyclopropyl)-4-(4,6-dimethoxypyrimidin-5-yl)-4H-1,2,4-triazol-3-yl)-1-methoxypropane-2-sulfonamide or (1R,2S)-1-(5-chloropyrimidin-2-yl)-N-(5-((S)-2,2-difluorocyclopropyl)-4-(4,6-dimethoxypyrimidin-5-yl)-4H-1,2,4-triazol-3-yl)-1-methoxypropane-2-sulfonamide] | 60
8 | COc1cccc(OC)c1-n1c(NS(=O)(=O)[C@@H](C)[C@@H](OC(C)C)c2ncc(C)cn2)nnc1[C@H]1C[C@@](C)(O)C1 (single isomer, unassigned) [Example 231.0, (1S,2S)-N-(4-(2,6-dimethoxyphenyl)-5-(trans-3-hydroxy-3-methylcyclobutyl)-4H-1,2,4-triazol-3-yl)-1-(5-methyl-2-pyrimidinyl)-1-(2-propanyloxy)-2-propanesulfonamide or (1S,2S)-N-(4-(2,6-dimethoxyphenyl)-5-(cis-3-hydroxy-3-methylcyclobutyl)-4H-1,2,4-triazol-3-yl)-1-(5-methyl-2-pyrimidinyl)-1-(2-propanyloxy)-2-propanesulfonamide] | 220
9 | C=C1CC(c2nnc(NS(=O)(=O)[C@@H](C)[C@H](OC)c3ncc(Cl)cn3)n2-c2c(OC)ncnc2OC)C1 [Example 118.0] | 1
10 | COc1cccc(OC)c1-n1c(NS(=O)(=O)[C@@H](C)[C@@H](OC(C)C)c2ncc(C)cn2)nnc1[C@H]1C[C@@H](OC)C1 (racemic) [Example 227.0, (1S,2S)-N-(4-(2,6-dimethoxyphenyl)-5-(trans-3-methoxycyclobutyl)-4H-1,2,4-triazol-3-yl)-1-(5-methyl-2-pyrimidinyl)-1-(2-propanyloxy)-2-propanesulfonamide or (1S,2S)-N-(4-(2,6-dimethoxyphenyl)-5-(cis-3-methoxycyclobutyl)-4H-1,2,4-triazol-3-yl)-1-(5-methyl-2-pyrimidinyl)-1-(2-propanyloxy)-2-propanesulfonamide] | 2.7
11 | (1R,2S)-1-(5-chloropyrimidin-2-yl)-N-(4-(2,6-dimethoxyphenyl)-5-((R)-3-oxocyclopentyl)-4H-1,2,4-triazol-3-yl)-1-methoxypropane-2-sulfonamide or (1R,2S)-1-(5-chloropyrimidin-2-yl)-N-(4-(2,6-dimethoxyphenyl)-5-((S)-3-oxocyclopentyl)-4H-1,2,4-triazol-3-yl)-1-methoxypropane-2-sulfonamide [Example 224.0] | 38
12 | (2S,3R)-3-(5-chloropyrimidin-2-yl)-N-(4-(2,6-dimethoxyphenyl)-5-((S)-spiro[2.2]pentan-1-yl)-4H-1,2,4-triazol-3-yl)butane-2-sulfonamide or (2S,3R)-3-(5-chloropyrimidin-2-yl)-N-(4-(2,6-dimethoxyphenyl)-5-((R)-spiro[2.2]pentan-1-yl)-4H-1,2,4-triazol-3-yl)butane-2-sulfonamide [Example 219.0] | 29
13 | COc1ncnc(OC)c1-n1c(NS(=O)(=O)[C@@H](C)[C@H](OC)c2ncc(Cl)cn2)nnc1[C@@H]1CC[C@@H]1F (single isomer, unassigned) [Example 179.0, (1R,2S)-1-(5-chloropyrimidin-2-yl)-N-(4-(4,6-dimethoxypyrimidin-5-yl)-5-((1S,2S)-2-fluorocyclobutyl)-4H-1,2,4-triazol-3-yl)-1-methoxypropane-2-sulfonamide or (1R,2S)-1-(5-chloropyrimidin-2-yl)-N-(4-(4,6-dimethoxypyrimidin-5-yl)-5-((1R,2R)-2-fluorocyclobutyl)-4H-1,2,4-triazol-3-yl)-1-methoxypropane-2-sulfonamide] | 46
14 | COc1cccc(OC)c1-n1c(NS(=O)(=O)[C@@H](C)[C@H](C)c2ncc(Cl)cn2)nnc1C1(c2ccccn2)CC1 [Example 125.0] | 400
15 | COc1ncnc(OC)c1-n1c(NS(=O)(=O)[C@@H](C)[C@H](OC)c2ncc(Cl)cn2)nnc1[C@H]1C[C@](C)(F)C1 (single isomer, unassigned) [Example 237.0, (1R,2S)-1-(5-chloropyrimidin-2-yl)-N-(4-(4,6-dimethoxypyrimidin-5-yl)-5-((1s,3S)-3-fluoro-3-methylcyclobutyl)-4H-1,2,4-triazol-3-yl)-1-methoxypropane-2-sulfonamide or (1R,2S)-1-(5-chloropyrimidin-2-yl)-N-(4-(4,6-dimethoxypyrimidin-5-yl)-5-((1r,3S)-3-fluoro-3-methylcyclobutyl)-4H-1,2,4-triazol-3-yl)-1-methoxypropane-2-sulfonamide] | 30
16 | COc1cccc(OC)c1-n1c(NS(=O)(=O)[C@@H](C)[C@H](OC)c2ncc(Cl)cn2)nnc1[C@H]1C[C@@H](CO)C1 (single isomer, unassigned) [Example 124.0, (1R,2S)-1-(5-chloro-2-pyrimidinyl)-N-(4-(2,6-dimethoxyphenyl)-5-(cis-3-(hydroxymethyl)cyclobutyl)-4H-1,2,4-triazol-3-yl)-1-methoxy-2-propanesulfonamide or (1R,2S)-1-(5-chloro-2-pyrimidinyl)-N-(4-(2,6-dimethoxyphenyl)-5-(trans-3-(hydroxymethyl)cyclobutyl)-4H-1,2,4-triazol-3-yl)-1-methoxy-2-propanesulfonamide] | 49
17 | COc1cccc(OC)c1-n1c(NS(=O)(=O)[C@@H](C)[C@@H](OC(C)C)c2cnc(C)cn2)nnc1C1CCC1 [Example 140.0] | 31
18 | COc1ncnc(OC)c1-n1c(NS(=O)(=O)[C@@H](C)[C@H](OC)c2ncc(Cl)cn2)nnc1[C@H]1CC[C@@H](C(F)(F)F)CC1 (single isomer, unassigned) [Example 173.0, (1R,2S)-1-(5-chloropyrimidin-2-yl)-N-(4-(4,6-dimethoxypyrimidin-5-yl)-5-((1s,4R)-4-(trifluoromethyl)cyclohexyl)-4H-1,2,4-triazol-3-yl)-1-methoxypropane-2-sulfonamide or (1R,2S)-1-(5-chloropyrimidin-2-yl)-N-(4-(4,6-dimethoxypyrimidin-5-yl)-5-((1r,4S)-4-(trifluoromethyl)cyclohexyl)-4H-1,2,4-triazol-3-yl)-1-methoxypropane-2-sulfonamide] | 13
19 | COc1ncnc(OC)c1-n1c(NS(=O)(=O)[C@@H](C)[C@H](OC)c2ncc(Cl)cn2)nnc1C1CC(Cl)(Cl)C1 [Example 203.0, (1R,2S)-1-(5-chloropyrimidin-2-yl)-N-(5-(3,3-dichlorocyclobutyl)-4-(4,6-dimethoxypyrimidin-5-yl)-4H-1,2,4-triazol-3-yl)-1-methoxypropane-2-sulfonamide] | 10
